28 compounds from ChEMBL document CHEMBL5725801, “Fused heterocyclic compounds as CaM kinase inhibitors” (2018) can be followed below.

The nature of this test: CaMKII Cell-Based Activity: CaMKII activity in neonatal rat ventricular myocytes (NRVM) was measured by monitoring the phosphorylation level of phospholamban using high-content imaging. NRVMs were plated in a clear bottom 384-well plate in medium supplemented with 10% fetal bovine serum (FBS) and incubated at 37° C., 5% CO2 overnight. The medium was changed to a serum-free medium and compounds were dosed to the cells. The cells were incubated at 37° C., 5% CO2 for 4 hours and were then treated with 100 nM ATX-II (Alomone Labs) to activate CaMKII. 10 minutes after the addition of ATX-II, the cells were fixed with 4% formaldehyde followed by permeabilization with 0.1% triton X100. The fixed cells were stained with an anti-phospho-phospholamban primary antibody (Santa Cruz Biotechnology) and an Alexa488-labeled anti-rabbit IgG secondary antibody (Life Technologies Corporation) as well as Hoechst 33342 (Life Technologies Corporation). The cells were imaged using an ArrayScan VTI (Cellomics) and analyzed for cells containing a positive fluorescent signal at 485 nm, reported as % responder. The % responders were plotted against the compound concentration to determine the compounds EC50.

A word on the EC50: it is the concentration at which the effect is half-maximal. A low value points to an effect from little substance. For `CCN(CC)[C@@H](C)CNC(=O)c1cc(OCCOC)nc(-c2cnn3ccc(-c4cccs4)nc23)c1`, it took 32 nM to reach a half-maximal effect (EC50).

Regarding `CCN(CC)[C@@H](C)CNC(=O)c1cc(O[C@H]2CCOC2)nc(-c2cnn3ccc(-c4cccs4)nc23)c1`, the EC50 turned out to be 57.1 nM.

The compound `CCN(CC)[C@@H](C)CNC(=O)c1cc(O[C@@H]2CCOC2)nc(-c2cnn3ccc(-c4cccs4)nc23)c1` had an EC50 of 66.2 nM.

On to `CCC(CNC(=O)c1cc(-c2cnn3ccc(-c4cccs4)nc23)nc(N2CC[C@H]2C(=O)NC)c1)N(CC)CC` (stereo partly drawn), for which a half-maximal effect (EC50) was put at 36.8 nM.

`CCN(CC)[C@@H](C)CNC(=O)c1cc(OCC(C)(C)O)nc(-c2cnn3ccc(-c4cccs4)nc23)c1` yielded an EC50 of 38.4 nM.

The compound `CCN(CC)[C@@H](C)CNC(=O)c1cc(OCC2(C)COC2)nc(-c2cnn3ccc(-c4cccs4)nc23)c1` came in with an EC50 of 55.3 nM.

With `CCCN(CC)[C@@H](C)CNC(=O)c1cc(-c2cnn3ccc(-c4cccs4)nc23)nc(N2CC[C@H]2C(=O)NC)c1`, the EC50 was 13.6 nM.

`CCN(CC)[C@@H](C)CNC(=O)c1cc(-c2c(C)n[nH]c2C)nc(-c2cnn3ccc(-c4cccs4)nc23)c1` came in with an EC50 of 9.37 nM.

Consider `CCN(CC)[C@@H](C)CNC(=O)c1cc(OCCCOC)nc(-c2cnn3ccc(-c4cccs4)nc23)c1`, for which the EC50 worked out at 37.8 nM.

In turn, `CCN(CC)[C@@H](C)CNC(=O)c1cc(-c2c[nH]nc2C(F)(F)F)nc(-c2cnn3ccc(-c4cccs4)nc23)c1` registered an EC50 of 20.3 nM.

`COC1CN(c2cc(C(=O)N3C4CC[C@@H]3CCNC4)cc(-c3cnn4ccc(-c5ccccc5)nc34)n2)C1` gave an EC50 of 272 nM.

`CCN(CC)[C@@H](C)CNC(=O)c1cc(OCc2cccnc2)nc(-c2cnn3ccc(-c4cccs4)nc23)c1`: the EC50 turned out to be 56.1 nM.

On to `CCN(CC)[C@@H](C)CNC(=O)c1cc(-c2cnoc2)nc(-c2cnn3ccc(-c4cccs4)nc23)c1`, for which the midpoint of the response, the EC50, lay at 29.7 nM.

On to `CCN(CC)CCNC(=O)c1cc(-c2cnn3ccc(-c4cccs4)nc23)nc(N2CC[C@H]2C(=O)NC)c1`, for which the midpoint of the response, the EC50, lay at 34.7 nM.

In turn, `CCN(CC)[C@@H](C)CNC(=O)c1cc(OCCc2cnccn2)nc(-c2cnn3ccc(-c4cccs4)nc23)c1` returned an EC50 of 64.2 nM.

`CCN(CC)[C@@H](C)CNC(=O)c1cc(OC[C@H](C)OC)nc(-c2cnn3ccc(-c4cccs4)nc23)c1` returned an EC50 of 48.4 nM.

`CCN(CC)[C@@H](CO)CNC(=O)c1cc(-c2cnn3ccc(-c4cccs4)nc23)nc(N2CC[C@H]2C(=O)NC)c1` had an EC50 of 72.9 nM.

Compound `CC[C@@H](CNC(=O)c1cc(-c2cnn3ccc(-c4cccs4)nc23)nc(N2CC[C@H]2C(=O)NC)c1)N(CC)CCO` came in with an EC50 of 57.6 nM.

In the case of `CCN(CC)[C@@H](C)CNC(=O)c1cc(-c2cc[nH]n2)nc(-c2cnn3ccc(-c4cccs4)nc23)c1`, a half-maximal effect (EC50) was put at 14.5 nM.

In turn, `CCN(CC)[C@@H](C)CNC(=O)c1cc(OC[C@H]2CCCO2)nc(-c2cnn3ccc(-c4cccs4)nc23)c1` registered an EC50 of 27.8 nM.

On to `CCN(CC)[C@@H](C)CNC(=O)c1cc(-c2cnn(C)c2)nc(-c2cnn3ccc(-c4cccs4)nc23)c1`, for which it took 8.24 nM to reach a half-maximal effect (EC50).

The compound `CCN(CC)[C@@H](C)CNC(=O)c1cc(OCc2ccc[n+]([O-])c2)nc(-c2cnn3ccc(-c4cccs4)nc23)c1` showed an EC50 of 68.5 nM.

As for `CCN(CC)[C@@H](C)CNC(=O)c1cc(-c2cn[nH]c2)nc(-c2cnn3ccc(-c4cccs4)nc23)c1`, a half-maximal response (EC50) required 13.5 nM.

In turn, `CCN(CC)[C@@H](C)CNC(=O)c1cc(-c2cnn3ccc(-c4cccs4)nc23)nc(-c2cnn3ccc(-c4cccs4)nc23)c1` gave an EC50 of 794 nM.

Take `CCN(CC)[C@@H](C)CNC(=O)c1cc(OCCN(C)C)nc(-c2cnn3ccc(-c4cccs4)nc23)c1`: the EC50 was determined as 115 nM.

Take `CCN(CC)[C@@H](C)CNC(=O)c1cc(-c2cnn(C3COC3)c2)nc(-c2cnn3ccc(-c4cccs4)nc23)c1`: a half-maximal effect (EC50) was put at 12.3 nM.

Take `CCN(CC)[C@@H](C)CNC(=O)c1cc(OCCN2CCOCC2)nc(-c2cnn3ccc(-c4cccs4)nc23)c1`: the response was half-maximal at 86.8 nM (EC50).

Regarding `CCN(CC)[C@@H](C)CNC(=O)c1cc(-c2c[nH]nc2C)nc(-c2cnn3ccc(-c4cccs4)nc23)c1`, a half-maximal effect (EC50) was put at 70.4 nM.
